The values below come from PubChem BioAssay AID1963431 (Molecular Pharmacology Branch, DTP, NCI, 2024).

Values joined by “and” are separate entries in the source; they are usually repeats but may differ in a detail not shown here. Equal entries are not always repeated.

The assay concerns Rh18 complex spheroid viability, percent test/control. The experiment in a line: Anticancer human tumor Rh18 cell line growth inhibition [Asc].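 As to all read-outs here: spheroids exposed to compound for 7 days.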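 As to viability, T/C: 100% = DMSO vehicle control wells.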 As to conditions: for viability, T/C: stronger effect = lower value. The essentials:
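Concentration series start at each agent's clinical Cmax, or at 10 microM when none is established, and drop in half-log steps; agents are applied alone or together to complex spheroids built with HUVEC and hMSC.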

With `CNC(C)C(=O)NC1CN(S(=O)(=O)c2cccc(S(=O)(=O)N3CCC4CCC(C(=O)NC(c5ccccc5)c5ccccc5)N4C(=O)C(NC(=O)C(C)NC)C3)c2)CCC2CCC(C(=O)NC(c3ccccc3)c3ccccc3)N2C1=O` (configuration not stated), the viability, T/C (commonly the result in the treated group divided by that in the control group, in per cent) (compound 0.00316 µM) is 80.3% and 79.9% and 75.9%. The concentration for half-maximal inhibition (IC50) – broadly, the midpoint of a concentration-inhibition curve – was more than 1000 nM (compound alone, run of 11/15/2022); 21.6 nM and 33.4 nM (curve of compound).
`Cn1ncnc1[C@H]1c2n[nH]c(=O)c3cc(F)cc(c23)N[C@@H]1c1ccc(F)cc1` + CNC(C)C(=O)NC1CN(S(=O)(=O)c2cccc(S(=O)(=O)N3CCC4CCC(C(=O)NC(c5ccccc5)c5ccccc5)N4C(=O)C(NC(=O)C(C)NC)C3)c2)CCC2CCC(C(=O)NC(c3ccccc3)c3ccccc3)N2C1=O: the IC50 is 3.74 nM (curve of first compound, second compound 0.01 µM); 1.53 nM (curve of first compound, second compound 0.0316 µM); less than 0.316 nM (curve of first compound, second compound 0.1 µM); 0.406 nM (curve of first compound, second compound 0.316 µM); 0.588 nM (curve of first compound, second compound 1 µM). Also, the viability, T/C was 54.4% (second compound 0.01 µM, first compound 0.000316 µM); 64.3% (second compound 0.01 µM, first compound 0.001 µM); 53.5% (second compound 0.01 µM, first compound 0.00316 µM); 26.7% (second compound 0.01 µM, first compound 0.01 µM); 18.4% (second compound 0.01 µM, first compound 0.0316 µM); 19.2% (second compound 0.01 µM, first compound 0.1 µM). Moreover, the viability, T/C is, setting by setting: (second compound 0.0316 µM, first compound 0.000316 µM) 62.7%; (second compound 0.0316 µM, first compound 0.001 µM) 58.1%; (second compound 0.0316 µM, first compound 0.00316 µM) 36.5%; (second compound 0.0316 µM, first compound 0.01 µM) 23.1%; (second compound 0.0316 µM, first compound 0.0316 µM) 18.7%; (second compound 0.0316 µM, first compound 0.1 µM) 21.3%. Further, the viability, T/C is 39.4% (second compound 0.1 µM, first compound 0.000316 µM); 47.7% (second compound 0.1 µM, first compound 0.001 µM); 34.6% (second compound 0.1 µM, first compound 0.00316 µM); 18% (second compound 0.1 µM, first compound 0.01 µM); 14.8% (second compound 0.1 µM, first compound 0.0316 µM); 15% (second compound 0.1 µM, first compound 0.1 µM). The viability, T/C reads like this: (second compound 0.316 µM, first compound 0.000316 µM) 55.7%; (second compound 0.316 µM, first compound 0.001 µM) 29.6%; (second compound 0.316 µM, first compound 0.00316 µM) 25.5%; (second compound 0.316 µM, first compound 0.01 µM) 19.6%; (second compound 0.316 µM, first compound 0.0316 µM) 12.4%; (second compound 0.316 µM, first compound 0.1 µM) 20%. Further, the viability, T/C by setting is: (second compound 1 µM, first compound 0.000316 µM) 49.1%; (second compound 1 µM, first compound 0.001 µM) 51.2%; (second compound 1 µM, first compound 0.00316 µM) 42.9%; (second compound 1 µM, first compound 0.01 µM) 26.1%; (second compound 1 µM, first compound 0.0316 µM) 18.4%; (second compound 1 µM, first compound 0.1 µM) 14.2%.
As for `Cn1ncnc1[C@H]1c2n[nH]c(=O)c3cc(F)cc(c23)N[C@@H]1c1ccc(F)cc1` + CCN1C(C(=O)NC23CCC(C(=O)O)(CC2)CC3)C(c2cccc(Cl)c2F)C2(C(=O)Nc3cc(Cl)ccc32)C12CCCCC2, the IC50 by setting is: (curve of first compound, second compound 0.03 µM) less than 0.316 nM; (curve of first compound, second compound 0.0949 µM) less than 0.316 nM; (curve of first compound, second compound 0.3 µM) less than 0.316 nM; (curve of first compound, second compound 0.949 µM) less than 0.316 nM; (curve of first compound, second compound 3 µM) less than 0.316 nM. For the same compound, the viability, T/C runs as follows: (second compound 0.03 µM, first compound 0.000316 µM) 39%; (second compound 0.03 µM, first compound 0.001 µM) 36.2%; (second compound 0.03 µM, first compound 0.00316 µM) 45.6%; (second compound 0.03 µM, first compound 0.01 µM) 36.1%; (second compound 0.03 µM, first compound 0.0316 µM) 39.4%; (second compound 0.03 µM, first compound 0.1 µM) 49%. For the same compound, the viability, T/C was 22.7% (second compound 0.0949 µM, first compound 0.000316 µM); 27.1% (second compound 0.0949 µM, first compound 0.001 µM); 25.6% (second compound 0.0949 µM, first compound 0.00316 µM); 26.6% (second compound 0.0949 µM, first compound 0.01 µM); 25.5% (second compound 0.0949 µM, first compound 0.0316 µM); 25.3% (second compound 0.0949 µM, first compound 0.1 µM). Besides, the viability, T/C was 13.3% (second compound 0.3 µM, first compound 0.000316 µM); 15.4% (second compound 0.3 µM, first compound 0.001 µM); 13% (second compound 0.3 µM, first compound 0.00316 µM); 13.1% (second compound 0.3 µM, first compound 0.01 µM); 13.3% (second compound 0.3 µM, first compound 0.0316 µM); 13.3% (second compound 0.3 µM, first compound 0.1 µM). For the same compound, the viability, T/C is 11.1% (second compound 0.949 µM, first compound 0.000316 µM); 11.2% (second compound 0.949 µM, first compound 0.001 µM); 11.7% (second compound 0.949 µM, first compound 0.00316 µM); 10.4% (second compound 0.949 µM, first compound 0.01 µM); 9.91% (second compound 0.949 µM, first compound 0.0316 µM); 9.54% (second compound 0.949 µM, first compound 0.1 µM). Further, the viability, T/C (second compound 3 µM, first compound 0.000316 µM) was 9.71%; the viability, T/C (second compound 3 µM, first compound 0.001 µM) was 9.49%; the viability, T/C (second compound 3 µM, first compound 0.00316 µM) is 9.33%; the viability, T/C (second compound 3 µM, first compound 0.01 µM) was 7.51%; the viability, T/C (second compound 3 µM, first compound 0.0316 µM) is 8.46%; the viability, T/C (second compound 3 µM, first compound 0.1 µM) was 7.12%.
For the compound `CCN1CCN(Cc2ccc(Nc3ncc(F)c(-c4cc(F)c5nc(C)n(C(C)C)c5c4)n3)nc2)CC1`, the viability, T/C was 88.8% and 66.9% and 96.3% (compound 0.00316 µM); 115% and 84.9% and 92.1% (compound 0.01 µM); 85.2% and 77.4% and 70.8% (compound 0.0316 µM); 66.5% and 65.2% and 78.4% (compound 0.1 µM); 85.7% and 111% and 72.7% (compound 0.316 µM); 143% and 152% and 65.1% (compound 1 µM). Further, where the note is “curve of compound”, the IC50 is more than 1000 nM.
Consider `NC1CCC(NC2CC2c2ccccc2)CC1` (configuration not stated), for which the viability, T/C runs as follows: (compound 0.000316 µM) 135% and 130% and 96.5%; (compound 0.001 µM) 134% and 133% and 98%; (compound 0.00316 µM) 124% and 114% and 102%; (compound 0.01 µM) 120% and 114% and 103%; (compound 0.0316 µM) 120% and 98.2% and 110%; (compound 0.1 µM) 114% and 119% and 102%. Besides, the IC50 (curve of compound) was more than 100 nM.
